From paper PMC8582824, “Targeting DDX3X Helicase Activity with BA103 Shows Promising Therapeutic Effects in Preclinical Glioblastoma Models” (Cancers, 2021)

How the values were obtained:
[1] = tested on: DDX3X; assay: DDX3X protein expression by Western blot in GBM cells; assay type: cell-based; details: 24 h of treatment
Experimental: (§1) Cells were incubated for 15 min in lysis buffer containing 1% triton, 0.1% SDS, 2 mmol/L CaCl2, 10 mg/mL orthovanadate, and 1× protease inhibitors cocktail (Sigma-Aldrich, St. Louis, MO, USA). Forty micrograms of proteins were electrophoresed in 12% SDS-polyacrylamide gel, and then, the gel was placed onto a Trans-Blot Turbo mini nitrocellulose transfer pack and transferred using a Trans-Blot Turbo Transfer System (Bio-Rad Laboratories, Hercules, CA, USA). The membrane was incubated with […] primary antibody and then with […] horseradish peroxidase (HRP)-conjugated secondary antibodies (Santa Cruz Biotechnology, Dallas, TX, USA). […]
To better characterize the antiproliferative effect of BA103, we performed further biological evaluation using GBM cell lines. The expression of DDX3X was evaluated in U87 and U251 cell lines by Western blot analysis in comparison with HepG2 cells, resulting in basally detectable mainly in U87 cells (Figure 6A). […] Thus, also according to the importance of β-catenin signaling in GBM, we analyzed whether the expression of β-catenin in U87 and U251 cells could be associated with DDX3X activity. GBM cells were treated with BA103 for 48 h, and then, β-catenin expression was evaluated by Western blot analysis and immunofluorescence analysis (Figure 7A,B, respectively). […]

[2] = tested on: U87 cells intracerebral xenograft; assay: Orthotopic U87 xenograft model of GBM; assay type: in vivo, CD1 nude mice; details: 50 mg/kg i.p., three times per week for three weeks, observed two months
Experimental: In CD1 nude mice, 3 × 10^3 U87 cells were injecting intracerebrally using a stereotactic frame (Stoelting Europe, Dublin, Ireland). Optimization of the protocol for treatment procedures was based on previously published data performed in the same experimental in vivo model. A volume of 3 μL was inoculated by a sterile Hamilton syringe with a 26-gauge needle inserted at a depth of 3.0 mm from the skull surface. Five days after injection, animals were randomized to control and treated groups. […] For in vivo administration, BA103 was administered i.p. in a saline solution containing 10% v/v DMSO and 10% v/v TWEEN 80. Each mouse received 50 mg/kg BA103, or vehicle, three times per week.
Figure 9 Biological activity of BA103 in xenograft models of GBM. (A–D) Mice were inoculated s.c. with U87 cells, randomly distributed in two groups (CTR and BA103), and treated according to the protocol shown in panel (A). Tumor growth was monitored by measuring tumor volume (B), and at the end point, tumors were weighed, and the resulting mean values for each group are reported in the histogram (C). Recovered tumor masses were processed for analysis of DDX3X expression by immunohistochemistry, and representative images acquired at 400× magnification are shown in panel (D). (E) Survival curve from in vivo orthotopic model of GBM. […] Mice were monitored for two months after U87 cells inoculation. […]

[3] = tested on: β-catenin; assay: β-catenin expression by Western blot and immunofluorescence; assay type: cell-based; details: U87 and U251 cells, 48 h
Experimental: as §1
Cells grown on coverslips (2 × 10^4 cells/cm^2) were fixed in 4% w/v paraformaldehyde in PBS for 10 min at RT and permeabilized in PBS containing 0.1% v/v Triton X-100 for 5 min at RT. […] After extensive washings, cells were mounted with ProLong Gold antifade mounting medium (Life Technologies Corporation, Carlsbad, CA, USA) and observed by a fluorescence microscope equipped with a digital camera (AXIOPHOT, Carl Zeiss, Oberkochen, Germany).
To better characterize the antiproliferative effect of BA103, we performed further biological evaluation using GBM cell lines. The expression of DDX3X was evaluated in U87 and U251 cell lines by Western blot analysis in comparison with HepG2 cells, resulting in basally detectable mainly in U87 cells (Figure 6A). […]

## CCCCc1cn(-c2ccc(NC(=O)Nc3ccccc3C(F)(F)F)cc2)nn1 [BA103, 1-(4-(4-Butyl-1H-1,2,3-triazol-1-yl)phenyl)-3-(2-(trifluoromethyl)phenyl)urea]
[1]
  expression of DDX3X: reduction in the expression of DDX3X
[2]
  mice alive at the endpoint: seven out of eight
[3]
  expression of β-catenin: reduction in the expression of β-catenin
